The values below come from PubChem BioAssay (NCI).

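A five-concentration, 48-hour dose response in 96-well plates underlies each endpoint, interpolated linearly between surrounding concentrations. Definition used: TGI = concentration required for complete inhibition of growth.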

Test systems include A498 renal; CCRF-CEM leukemia; HCT-15 colon; HOP-92 NSCLC; IGROV1 ovarian; K-562 leukemia; LOX IMVI melanoma; MCF7 breast; MDA-MB-435; MOLT-4 leukemia; NCI-H460 lung; NCI-H522 lung; NCI/ADR-RES ovarian; OVCAR-8 ovarian; SF-295 CNS; SK-MEL-2 melanoma; SK-MEL-28 melanoma; SN12C renal; TK-10 renal; UACC-62 melanoma.
Assay in all cases: NCI anticancer screen, dose series, 48 h

Regarding `CC(=O)OC(CN1CCN(c2ccccn2)CC1)Cn1sc2nc(C)cc(C)c2c1=O` (stereo not given), the TGI is 32.2 µM in the assay on A498 renal; above 100 µM with CCRF-CEM leukemia; 42.2 µM in the assay on HCT-15 colon; above 100 µM with HOP-92 NSCLC; 33.4 µM in the assay with IGROV1 ovarian; 94 µM in the assay with K-562 leukemia. In addition, the TGI was 47.4 µM in the assay with LOX IMVI melanoma; 34 µM in the assay on MCF7 breast; 34.5 µM in the assay with MDA-MB-435; above 100 µM in the assay with MOLT-4 leukemia; 35.2 µM in the assay on NCI-H460 lung; 22.7 µM with NCI-H522 lung. The TGI is 67.1 µM in the assay with NCI/ADR-RES ovarian; 73.9 µM in the assay with OVCAR-8 ovarian; above 100 µM in the assay on SF-295 CNS; 32.2 µM with SK-MEL-2 melanoma; 42.2 µM in the assay on SK-MEL-28 melanoma; 37.2 µM with SN12C renal. Besides, the TGI was determined as 31.3 µM in the assay with TK-10 renal and 30 µM with UACC-62 melanoma.

Regarding `CCCCCCCCCCCCCCCCCCNc1ccn(C2OC(COP(=O)(O)OCC3OC(n4cc(C)c(=O)[nH]c4=O)CC3F)C(O)C2O)c(=O)n1` (stereo not given), the TGI in the assay with A498 renal is above 60.2 µM; in the assay with CCRF-CEM leukemia it was 12.4 µM; in the assay with HCT-15 colon, 15.9 µM; in the assay with HOP-92 NSCLC, 37.5 µM; with IGROV1 ovarian, 17.9 µM; with K-562 leukemia, 42.5 µM. The TGI in the assay on LOX IMVI melanoma is 14.9 µM; in the assay with MCF7 breast, above 64.5 µM; in the assay with MDA-MB-435, 38.9 µM; in the assay on MOLT-4 leukemia, 15.4 µM; in the assay with NCI-H460 lung, 43.9 µM; in the assay on NCI-H522 lung, 9.04 µM. Further, the TGI in the assay with NCI/ADR-RES ovarian was 45.9 µM; in the assay with OVCAR-8 ovarian it was 29.3 µM; with SF-295 CNS, 41.9 µM; with SK-MEL-2 melanoma, 19.4 µM; with SK-MEL-28 melanoma it was 17.6 µM; in the assay with SN12C renal, 39.7 µM. The TGI in the assay with TK-10 renal worked out at 9.9 µM; in the assay with UACC-62 melanoma, 12.6 µM.

Regarding `C=CCNC(=S)N=Nc1c(O)n(CN2CCOCC2)c2ccc([N+](=O)[O-])cc12`, the TGI in the assay on A498 renal is 65.6 µM; with CCRF-CEM leukemia, above 100 µM; in the assay on HCT-15 colon, above 100 µM; in the assay with HOP-92 NSCLC, 83.3 µM; with IGROV1 ovarian, above 100 µM; with K-562 leukemia, above 100 µM. The TGI in the assay with LOX IMVI melanoma, in the assay with MCF7 breast, in the assay on MDA-MB-435, in the assay with MOLT-4 leukemia, in the assay on NCI-H460 lung and with NCI-H522 lung was above 100 µM throughout. Besides, the TGI in the assay with NCI/ADR-RES ovarian, in the assay with OVCAR-8 ovarian, in the assay on SF-295 CNS, with SK-MEL-2 melanoma, in the assay on SK-MEL-28 melanoma and with SN12C renal was above 100 µM in each case. Also, the figures for the TGI with TK-10 renal and with UACC-62 melanoma were 93.1 µM and above 100 µM, respectively.

As for `O=[N+]([O-])c1ccc(-c2cc(O)c3nc4ccccc4n3c2)cc1`, the TGI in the assay with A498 renal, in the assay with CCRF-CEM leukemia, with HCT-15 colon, with HOP-92 NSCLC, in the assay with IGROV1 ovarian and in the assay on K-562 leukemia was above 100 µM throughout. Besides, the TGI in the assay with LOX IMVI melanoma is above 100 µM; in the assay on MCF7 breast, above 100 µM; in the assay on MDA-MB-435, above 31.6 µM; in the assay with MOLT-4 leukemia, above 100 µM; with NCI-H460 lung it was above 100 µM; in the assay with NCI-H522 lung, above 100 µM. Also, the TGI in the assay on NCI/ADR-RES ovarian, in the assay on OVCAR-8 ovarian, with SF-295 CNS, in the assay on SK-MEL-2 melanoma, in the assay on SK-MEL-28 melanoma and in the assay with SN12C renal was above 100 µM throughout. Further, the results for the TGI in the assay with TK-10 renal and with UACC-62 melanoma were above 100 µM and above 31.6 µM, respectively.

As for `CC1=NN(c2nc(N)nc(CBr)n2)C(C)(C)C1`, the TGI in the assay on A498 renal was 25.7 µM; with CCRF-CEM leukemia, 0.983 µM; in the assay on HCT-15 colon, 16.6 µM; in the assay with HOP-92 NSCLC, 1.08 µM; with IGROV1 ovarian it was 3.29 µM; in the assay on K-562 leukemia, above 100 µM. For the same compound, the TGI with LOX IMVI melanoma was found to be 1.89 µM; in the assay on MCF7 breast, 11.3 µM; in the assay with MDA-MB-435, 27.8 µM; in the assay on MOLT-4 leukemia, 4.72 µM; with NCI-H460 lung, 23.8 µM; in the assay with NCI-H522 lung, 1.01 µM. Also, the TGI in the assay with NCI/ADR-RES ovarian came out at 45.4 µM; with OVCAR-8 ovarian it was 18.4 µM; with SF-295 CNS, 24.8 µM; in the assay with SK-MEL-2 melanoma it was 26.2 µM; in the assay on SK-MEL-28 melanoma, 27.2 µM; in the assay with SN12C renal, 20.5 µM. Moreover, the TGI was 14.9 µM in the assay on TK-10 renal and 21.7 µM in the assay with UACC-62 melanoma.

Regarding `COC(=O)c1c(C)cccc1C1CN=NC12Cc1ccccc1C2=O` (stereo not given), the TGI in the assay on A498 renal, in the assay on CCRF-CEM leukemia, in the assay with HCT-15 colon, in the assay with HOP-92 NSCLC, with IGROV1 ovarian and with K-562 leukemia was above 100 µM each time. In addition, the TGI is above 100 µM in the assay on LOX IMVI melanoma; above 43.8 µM in the assay with MCF7 breast; above 100 µM in the assay on MDA-MB-435; above 100 µM in the assay on MOLT-4 leukemia; above 100 µM in the assay on NCI-H460 lung; above 100 µM in the assay with NCI-H522 lung. Also, the TGI in the assay with NCI/ADR-RES ovarian, in the assay with OVCAR-8 ovarian, in the assay with SF-295 CNS, in the assay on SK-MEL-2 melanoma, in the assay on SK-MEL-28 melanoma and with SN12C renal was above 100 µM throughout. The TGI in the assay with TK-10 renal and in the assay on UACC-62 melanoma was above 100 µM throughout.

Regarding `COc1ccc(CC2C3=C(CCN2C(=O)C2CCC2)CC2(CC3)OCCO2)cc1O` (stereo not given), the TGI in the assay on A498 renal is above 100 µM; with CCRF-CEM leukemia it was above 100 µM; in the assay on HCT-15 colon, 46.2 µM; in the assay with HOP-92 NSCLC, above 100 µM; in the assay on IGROV1 ovarian, above 100 µM; with K-562 leukemia, 84.4 µM. Besides, the TGI was above 100 µM in the assay on LOX IMVI melanoma; above 100 µM in the assay on MCF7 breast; 20 µM in the assay with MDA-MB-435; above 100 µM with MOLT-4 leukemia; above 100 µM with NCI-H460 lung; 38.3 µM in the assay on NCI-H522 lung. The TGI was 42.2 µM with NCI/ADR-RES ovarian; above 100 µM in the assay on OVCAR-8 ovarian; 45.5 µM with SF-295 CNS; above 100 µM in the assay on SK-MEL-2 melanoma; above 100 µM in the assay on SK-MEL-28 melanoma; above 100 µM with SN12C renal. The TGI in the assay with TK-10 renal and in the assay on UACC-62 melanoma was above 100 µM in each case.
